Data set [1] deals with SMN2 minigene (full length SMN2 minigene mRNA containing SMN2 exon 7). The data set can be described thus: SMN2 minigene mRNA splicing RT-qPCR assay in cultured cells. In kind it is cell-based, human. As to conditions: Homo sapiens, HEK293-H, read-out: EC1.5x for production of full length SMN2 mRNA. An outline of the steps: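 Full-length SMN2 minigene mRNA (exon 7 included), minigene-specific and not endogenous SMN, quantified by RT-qPCR multiplexed with GAPDH in stably transfected HEK293H cells after 24 h compound exposure at 37° C. Abundance from efficiency-corrected Ct, normalized to GAPDH and vehicle; EC1.5x reported as star bins.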

Data set [2] concerns Smn protein. As to the kind of experiment: Smn protein assay in cultured cells (SMN HTRF). In kind it is cell-based, human. As to conditions: 48 hours; for maximum fold (Fold) increase of Smn protein: SMA patient fibroblast cells, 7-point concentration data, fold increase relative to vehicle control (SMN HTRF); for EC1.5x (concentration giving 1.5-fold Smn protein increase): SMA Type 1 patient fibroblast cells (GM03813), 7-point concentration curve, SMN HTRF, concentration producing 1.5 times Smn protein vs DMSO vehicle control, read-out: EC1.5x for Smn protein expression. The essentials: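 Smn in SMA fibroblast lysates, measured by anti-SMN HTRF after 48 h compound exposure; EC1.5x from fold change over vehicle.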

[3] abbreviates: HEK293H cells stably transfected with SMN2-A minigene, 24 hours, 7-point concentration curve, 1.5-fold relative to vehicle-treated cells.

Where two headings read alike, the source gives them in different places. Bounds are passed on as bounds.

As usually defined, the melting point is the temperature of the solid-liquid transition.

Turning to `Cc1cn2cc(-c3cc4ccc(N5CCC(N(C)C)CC5)cc4oc3=O)cc2c(C)n1` [Compound 715, 7-[4-(dimethylamino)piperidin-1-yl]-3-(1,3-dimethylpyrrolo[1,2-a]pyrazin-7-yl)-2H-chromen-2-one], the melting point was 192 to 195 °C. Besides, the EC (1.5-fold) in data set [1] (setting [3]) is under 0.1 µM. Further, in data set [2], the “maximum fold (Fold) increase of Smn protein” value (“maximum fold (Fold) increase” below) is “** (fold increase between >1.2 and ≤1.35)”.
As to `Cc1cc(F)c2nc(-c3cc4ccc(N5CC6CCC5CN6)cc4oc3=O)cn2c1` (stereo not drawn) [Compound 600, 7-(2,5-diazabicyclo[2.2.2]oct-2-yl)-3-(8-fluoro-6-methylimidazo[1,2-a]pyridin-2-yl)-2H-chromen-2-one], the melting point lay within 246 to 256 °C. Moreover, the EC (1.5-fold) in data set [1] (setting [3]) is under 0.1 µM. Moreover, in data set [2], the EC1.5x (concentration giving 1.5-fold Smn protein increase) is under 300 nM and the “maximum fold (Fold) increase” value is on record as “***** (fold increase >1.65)”.
For the compound `Cc1ccc2nc(-c3cc4ccc(N5CCCN(C)CC5)cc4oc3=O)cn2c1` [Compound 142, 7-(4-methyl-1,4-diazepan-1-yl)-3-(6-methylimidazo[1,2-a]pyridin-2-yl)-2H-chromen-2-one], the melting point lay within 175 to 180 °C. The EC (1.5-fold) in data set [1] (setting [3]) lay in the range of 1 to 3 µM. In addition, in data set [2], the EC1.5x (concentration giving 1.5-fold Smn protein increase) lay within 300 to 1000 nM; the “maximum fold (Fold) increase” value is “**** (fold increase between >1.5 and ≤1.65)”.
In turn, `Cc1cn2cc(-c3cc4ccc(O[C@@H]5CCN(C)C5)cc4oc3=O)nc2c(C)n1` [Compound 889, 3-(6,8-dimethylimidazo[1,2-a]pyrazin-2-yl)-7-{[(3R)-1-methylpyrrolidin-3-yl]oxy}-2H-chromen-2-one] yielded a melting point of 195 to 202 °C. The EC (1.5-fold) in data set [1] (setting [3]) was under 0.1 µM. Moreover, in data set [2], the EC1.5x (concentration giving 1.5-fold Smn protein increase) was under 300 nM and the “maximum fold (Fold) increase” value was “***** (fold increase >1.65)”.
Taken in the same sequence, the figures for `Cc1cn2cc(-c3cc4ccc(C5=CC(C)(C)NC(C)(C)C5)cc4oc3=O)nc2c(C)n1` [Compound 949, 3-(6,8-dimethylimidazo[1,2-a]pyrazin-2-yl)-7-(2,2,6,6-tetramethyl-1,2,3,6-tetrahydropyridin-4-yl)-2H-chromen-2-one] were 188 to 190 °C, under 0.1 µM, under 300 nM and “***** (fold increase >1.65)”.
On to `Cc1cn2cc(-c3cc4ccc(CCCN5CCNCC5)cc4oc3=O)nc2c(C)n1` [Compound 859, 3-(6,8-dimethylimidazo[1,2-a]pyrazin-2-yl)-7-[3-(piperazin-1-yl)propyl]-2H-chromen-2-one], for which the melting point was in the range of 145 to 153 °C. In data set [1] (setting [3]), the EC (1.5-fold) is 0.1 to 0.3 µM. In data set [2], the EC1.5x (concentration giving 1.5-fold Smn protein increase) is 300 to 1000 nM; the “maximum fold (Fold) increase” value was “**** (fold increase between >1.5 and ≤1.65)”.
`COc1ccn2cc(-c3cc4ccc(N5CCN[C@@H](C)C5)cc4oc3=O)nc2c1` [Compound 434, 3-(7-methoxyimidazo[1,2-a]pyridin-2-yl)-7-[(3S)-3-methylpiperazin-1-yl]-2H-chromen-2-one] displayed a melting point of 250 to 256 °C. In addition, in data set [1] (setting [3]), the EC (1.5-fold) fell in the range of 1 to 3 µM. The “maximum fold (Fold) increase” value in data set [2] was “** (fold increase between >1.2 and ≤1.35)”.
The compound `Cc1ccc2nc(-c3cc4ccc(CN5CCC(O)CC5)cc4oc3=O)cn2c1` [Compound 252, 7-[(4-hydroxypiperidin-1-yl)methyl]-3-(6-methylimidazo[1,2-a]pyridin-2-yl)-2H-chromen-2-one] displayed a melting point of 261 to 264 °C. Further, in data set [1] (setting [3]), the EC (1.5-fold) was in the range of 3 to 30 µM. Further, the “maximum fold (Fold) increase” value in data set [2] is “** (fold increase between >1.2 and ≤1.35)”.
With `Cc1cn2cc(-c3cc4ccc(N5CCN6CCC[C@H]6C5)cc4oc3=O)cc2c(C)n1` [Compound 673, 3-(1,3-dimethylpyrrolo[1,2-a]pyrazin-7-yl)-7-[(8aS)-hexahydropyrrolo[1,2-a]pyrazin-2(1H)-yl]-2H-chromen-2-one], the melting point lay within 169 to 173 °C. In addition, the EC (1.5-fold) in data set [1] (setting [3]) was under 0.1 µM. Besides, in data set [2], the EC1.5x (concentration giving 1.5-fold Smn protein increase) was under 300 nM and the “maximum fold (Fold) increase” value is given as “***** (fold increase >1.65)”.
`CC(=O)O.CCN1CCN(c2ccc3cc(-c4ccc5nc(C)sc5c4)c(=O)oc3c2)C[C@@H]1C` [Compound 777, 7-[(3S)-4-ethyl-3-methylpiperazin-1-yl]3-(2-methyl-1,3-benzothiazol-6-yl)-2H-chromen-2-one acetate]: the melting point is 180 to 182 °C. In addition, the EC (1.5-fold) in data set [1] (setting [3]) fell in the range of 3 to 30 µM. Also, in data set [2], the “maximum fold (Fold) increase” value is listed as “* (maximum fold increase of ≤1.2)”.
Turning to `Cc1cn2cc(-c3cc4ccc(N5CCN[C@H](C)C5)cc4oc3=O)cc2c(C)n1` [Compound 668, 3-(1,3-dimethylpyrrolo[1,2-a]pyrazin-7-yl)-7-[(3R)-3-methylpiperazin-1-yl]-2H-chromen-2-one], the melting point is 205 to 209 °C. Besides, the EC (1.5-fold) in data set [1] (setting [3]) is under 0.1 µM. Moreover, in data set [2], the EC1.5x (concentration giving 1.5-fold Smn protein increase) is under 300 nM and the “maximum fold (Fold) increase” value is reported as “***** (fold increase >1.65)”.
Compound `O=c1oc2cc(N3CC4CCC(C3)N4)ccc2cc1-c1cn2cccc(F)c2n1` [Compound 506, 7-(3,8-diazabicyclo[3.2.1]oct-3-yl)-3-(8-fluoroimidazo[1,2-a]pyridin-2-yl)-2H-chromen-2-one] came in with a melting point of 232 to 235 °C. In data set [1] (24 h), the EC (1.5-fold) lay in the range of 0.1 to 0.3 µM. The “maximum fold (Fold) increase” value in data set [2] was “** (fold increase between >1.2 and ≤1.35)”.
Regarding `Cc1cn2cc(-c3cc4ccc(C5CCN(CCO)CC5)cc4oc3=O)nc2c(C)n1` [Compound 750, 3-(6,8-dimethylimidazo[1,2-a]pyrazin-2-yl)-7-[1-(2-hydroxyethyl)piperidin-4-yl]-2H-chromen-2-one], the melting point was 207 to 212 °C. Further, the EC (1.5-fold) in data set [1] (setting [3]) is under 0.1 µM. Further, in data set [2], the EC1.5x (concentration giving 1.5-fold Smn protein increase) was under 300 nM and the “maximum fold (Fold) increase” value is “***** (fold increase >1.65)”.
Regarding `Cc1cn2cc(-c3cc4ccc(N5CCCNCC5)cc4oc3=O)nc2s1` [Compound 233, 7-(1,4-diazepan-1-yl)-3-(2-methylimidazo[2,1-b][1,3]thiazol-6-yl)-2H-chromen-2-one], the melting point is 188 to 191 °C. Moreover, in data set [1] (setting [3]), the EC (1.5-fold) fell in the range of 0.1 to 0.3 µM. For the same compound, the “maximum fold (Fold) increase” value in data set [2] is “*** (fold increase between >1.35 and ≤1.5)”.
`Cl.Cl.O=c1oc2cc(O[C@@H]3CCNC3)ccc2cc1-c1cn2ccsc2n1` [Compound 324, 3-(imidazo[2,1-b][1,3]thiazol-6-yl)-7-[(3R)-pyrrolidin-3-yloxy]-2H-chromen-2-one hydrochloride (1:2)] gave a melting point of 252 to 256 °C. The EC (1.5-fold) in data set [1] (setting [3]) fell in the range of 0.3 to 1 µM. In addition, in data set [2], the “maximum fold (Fold) increase” value was “*** (fold increase between >1.35 and ≤1.5)”.
Turning to `Cc1cn2cc(-c3cc4ccc(N(C)[C@H]5CCN(C)C5)cc4oc3=O)nc2c(C)n1` [Compound 656, 3-(6,8-dimethylimidazo[1,2-a]pyrazin-2-yl)-7-{methyl[(3S)-1-methylpyrrolidin-3-yl]amino}-2H-chromen-2-one], the melting point was 178 to 184 °C. For the same compound, the EC (1.5-fold) in data set [1] (setting [3]) is under 0.1 µM. In data set [2], the EC1.5x (concentration giving 1.5-fold Smn protein increase) is under 300 nM and the “maximum fold (Fold) increase” value is “***** (fold increase >1.65)”.

The record behind these values is patent publication USRE47689E1, “Compounds for treating spinal muscular atrophy” (PTC Therapeutics, Inc., priority 2011, dated 2019).
